Laboratory results from ChEMBL document CHEMBL1201862, “PubChem BioAssay data set” (2004).
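All cell lines were grown in 96-well plates and treated with compound for 48 hours. Here, GI50 denotes the concentration required for 50% inhibition of growth.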 The source made the active and inactive calls. Rule as the data show it: active = GI50 up to about 1.1 µM and inactive = higher.

Key:
Assay in all cases: NCI anticancer screen, dose series, 48 h
[1] = tested on: BT-549
[2] = tested on: CCRF-CEM
[3] = tested on: COLO 205
[4] = tested on: DU-145
[5] = tested on: HCT-116
[6] = tested on: Hs-578T
[7] = tested on: KM12
[8] = tested on: LOX IMVI
[9] = tested on: M14
[10] = tested on: MCF7
[11] = tested on: MDA-MB-231
[12] = tested on: MDA-MB-435
[13] = tested on: MDA-N
[14] = tested on: Malme-3M
[15] = tested on: NCI-H460
[16] = tested on: NCI-H522
[17] = tested on: OVCAR-8
[18] = tested on: T47D
[19] = tested on: TK-10
[20] = tested on: HT-29

| Structure (SMILES) | GI50 [1] | GI50 [2] | GI50 [3] | GI50 [4] | GI50 [5] | GI50 [6] | GI50 [7] | GI50 [8] | GI50 [9] | GI50 [10] | GI50 [11] | GI50 [12] | GI50 [13] | GI50 [14] | GI50 [15] | GI50 [16] | GI50 [17] | GI50 [18] | GI50 [19] | GI50 [20] |
| --- | --- | --- | --- | --- | --- | --- | --- | --- | --- | --- | --- | --- | --- | --- | --- | --- | --- | --- | --- | --- |
| CCOC(=O)c1c(N2CCCC2)[nH]c(=O)c(C(c2ccc(OC)cc2)c2c(O)c(C(=O)OCC)c(N3CCCC3)[nH]c2=O)c1O | 76 µM (inactive) | > 100 µM (inactive) | > 100 µM (inactive) | > 100 µM (inactive) | > 100 µM (inactive) | > 100 µM (inactive) | > 100 µM (inactive) | > 100 µM (inactive) | > 100 µM (inactive) | > 100 µM (inactive) | 20.8 µM (inactive) | > 100 µM (inactive) | > 100 µM (inactive) | > 100 µM (inactive) | > 100 µM (inactive) | > 100 µM (inactive) | 86.1 µM (inactive) | > 100 µM (inactive) | 42.8 µM (inactive) |  |
| CCOC(=O)C1CCCN1C(=O)c1ccccc1Cl (stereo unspecified) | > 100 µM (inactive) | > 100 µM (inactive) |  | > 100 µM (inactive) | > 100 µM (inactive) | > 100 µM (inactive) | > 100 µM (inactive) | > 100 µM (inactive) | > 100 µM (inactive) | > 100 µM (inactive) | > 100 µM (inactive) | > 100 µM (inactive) | > 100 µM (inactive) | > 100 µM (inactive) | > 100 µM (inactive) | > 100 µM (inactive) | > 100 µM (inactive) | > 100 µM (inactive) | > 100 µM (inactive) | > 100 µM (inactive) |
| c1ccc(-c2cs[s+]c2)cc1 | > 100 µM (inactive) | 22.9 µM (inactive) | > 100 µM (inactive) | > 100 µM (inactive) | > 100 µM (inactive) | > 100 µM (inactive) | > 100 µM (inactive) | > 100 µM (inactive) | > 100 µM (inactive) | > 100 µM (inactive) | > 100 µM (inactive) | > 100 µM (inactive) | > 100 µM (inactive) | > 100 µM (inactive) | 31.8 µM (inactive) | 46.2 µM (inactive) | > 100 µM (inactive) | > 100 µM (inactive) | > 100 µM (inactive) | > 100 µM (inactive) |
| O=c1[nH]c(=O)n(C2CC(O)C(CO)O2)cc1OCC1CCCCC1 (stereo unspecified) | > 100 µM (inactive) | > 100 µM (inactive) | > 100 µM (inactive) | > 100 µM (inactive) | > 100 µM (inactive) | > 100 µM (inactive) | > 100 µM (inactive) | > 100 µM (inactive) | > 100 µM (inactive) | > 100 µM (inactive) | > 100 µM (inactive) | > 100 µM (inactive) | > 100 µM (inactive) | > 100 µM (inactive) | > 100 µM (inactive) | > 100 µM (inactive) | > 100 µM (inactive) | > 100 µM (inactive) | > 100 µM (inactive) | > 100 µM (inactive) |
| CCOC(=O)Cc1nc2c(N)ncnc2n1C1OC(COC(C)=O)C(OC(C)=O)C1OC(C)=O (stereo unspecified) | > 100 µM (inactive) | > 100 µM (inactive) | > 100 µM (inactive) | > 100 µM (inactive) | > 100 µM (inactive) | > 100 µM (inactive) | > 100 µM (inactive) | > 100 µM (inactive) | > 100 µM (inactive) | > 100 µM (inactive) | > 100 µM (inactive) | > 100 µM (inactive) | > 100 µM (inactive) | > 100 µM (inactive) | > 100 µM (inactive) | > 100 µM (inactive) | > 100 µM (inactive) | > 100 µM (inactive) | > 100 µM (inactive) | > 100 µM (inactive) |
| CC1=C2C3=C(C)C(=O)C(C)(C)CC[C@@]3(C)[C@]2(C)CCC(C)(C)C1=O | > 100 µM (inactive) | > 100 µM (inactive) | > 100 µM (inactive) | > 100 µM (inactive) | > 100 µM (inactive) | > 100 µM (inactive) | > 100 µM (inactive) | > 100 µM (inactive) | > 100 µM (inactive) | > 100 µM (inactive) | > 100 µM (inactive) | > 100 µM (inactive) | > 100 µM (inactive) | > 100 µM (inactive) |  | > 100 µM (inactive) | > 100 µM (inactive) | > 100 µM (inactive) | > 100 µM (inactive) | > 100 µM (inactive) |
| O=c1[nH]nc(Cc2ccc(Cl)cc2)n1CCO | > 100 µM (inactive) |  | > 100 µM (inactive) | > 100 µM (inactive) | > 100 µM (inactive) | > 100 µM (inactive) | > 100 µM (inactive) | > 100 µM (inactive) | > 100 µM (inactive) | > 100 µM (inactive) | > 100 µM (inactive) | > 100 µM (inactive) | > 100 µM (inactive) | > 100 µM (inactive) | > 100 µM (inactive) | > 100 µM (inactive) | > 100 µM (inactive) | > 100 µM (inactive) | > 100 µM (inactive) | > 100 µM (inactive) |
| COC(=O)c1cc2c(cc1C(=O)OC)[C@@]1(C)CCCC(C)(C)C1CC2 (stereo partly specified) | 28.6 µM (inactive) | 16.7 µM (inactive) |  | 14.1 µM (inactive) | 17.9 µM (inactive) | 17.7 µM (inactive) | 15.2 µM (inactive) | 18.1 µM (inactive) | 22.9 µM (inactive) | 15 µM (inactive) | 17.3 µM (inactive) | 30.2 µM (inactive) | 21.9 µM (inactive) | 1.22 µM (inactive) | 20.3 µM (inactive) | 16.9 µM (inactive) | 30.9 µM (inactive) | 0.508 µM (active) | 19.5 µM (inactive) | 15.6 µM (inactive) |
| C=CCSC1=N/C(=C\c2ccco2)C(=O)N1CC=C | 46.1 µM (inactive) | 42.6 µM (inactive) | 83.6 µM (inactive) | 90.4 µM (inactive) | 52.1 µM (inactive) | > 100 µM (inactive) | 64.4 µM (inactive) | 69.3 µM (inactive) | > 100 µM (inactive) | 16.6 µM (inactive) | 98.9 µM (inactive) | 52.5 µM (inactive) | 41.8 µM (inactive) | > 100 µM (inactive) | > 100 µM (inactive) | 43.9 µM (inactive) | > 100 µM (inactive) | 28.2 µM (inactive) | > 100 µM (inactive) | 68.4 µM (inactive) |
| COc1cc(/C=C/C(=O)OC[C@]23O[C@H]2[C@@H](OC2OC(C)C(O)C(O)C2O)C2C=CO[C@@H](OC4OC(CO)C(O)C(O)C4O)C23)ccc1O (stereo partly specified) | > 100 µM (inactive) |  | > 100 µM (inactive) | > 100 µM (inactive) | > 100 µM (inactive) | > 100 µM (inactive) | > 100 µM (inactive) | > 100 µM (inactive) | > 100 µM (inactive) | > 100 µM (inactive) | > 100 µM (inactive) | > 100 µM (inactive) | > 100 µM (inactive) | > 100 µM (inactive) | > 100 µM (inactive) | > 100 µM (inactive) | > 100 µM (inactive) | > 100 µM (inactive) | > 100 µM (inactive) | > 100 µM (inactive) |
| CN1C(=O)c2cccc3cc([N+](=O)[O-])cc(c23)C1=O | > 10 µM (inactive) | > 10 µM (inactive) | > 10 µM (inactive) | > 10 µM (inactive) | 8.61 µM (inactive) | > 10 µM (inactive) | > 10 µM (inactive) | > 10 µM (inactive) | > 10 µM (inactive) | 4.05 µM (inactive) | > 10 µM (inactive) | > 10 µM (inactive) | > 10 µM (inactive) | > 10 µM (inactive) |  | 5.65 µM (inactive) | > 10 µM (inactive) | > 10 µM (inactive) | > 10 µM (inactive) | > 10 µM (inactive) |
| CC(=O)OCCn1c(Cc2ccc(C)cc2)nn(C(C)=O)c1=O | > 100 µM (inactive) |  | > 100 µM (inactive) | > 100 µM (inactive) | > 100 µM (inactive) | > 100 µM (inactive) | > 100 µM (inactive) | > 100 µM (inactive) | > 100 µM (inactive) | > 100 µM (inactive) | > 100 µM (inactive) | > 100 µM (inactive) | > 100 µM (inactive) | > 100 µM (inactive) | > 100 µM (inactive) | > 100 µM (inactive) | > 100 µM (inactive) | > 100 µM (inactive) | > 100 µM (inactive) | > 100 µM (inactive) |
| CN1C/C(=C\c2cccs2)C2=NN(C)C(c3cccs3)C2C1 (stereo unspecified) | > 100 µM (inactive) | 72.8 µM (inactive) | > 100 µM (inactive) | > 100 µM (inactive) | 51.4 µM (inactive) | > 100 µM (inactive) | > 100 µM (inactive) | > 100 µM (inactive) | 97.7 µM (inactive) | 75.5 µM (inactive) | 67.9 µM (inactive) | > 100 µM (inactive) | > 100 µM (inactive) | > 100 µM (inactive) | 86.5 µM (inactive) | 81.3 µM (inactive) | > 100 µM (inactive) | 44.4 µM (inactive) | > 100 µM (inactive) | 61.1 µM (inactive) |
| CC(=O)Oc1ccccc1C(=O)Nc1ncc([N+](=O)[O-])s1 [NITAZOXANIDE] | 14.4 µM (inactive) |  | 12.7 µM (inactive) | 20.1 µM (inactive) | 11.2 µM (inactive) | 9.2 µM (inactive) | 22 µM (inactive) | 21.8 µM (inactive) | 15.9 µM (inactive) | 10.2 µM (inactive) | 21.8 µM (inactive) | 22.8 µM (inactive) | 27.3 µM (inactive) | 11.1 µM (inactive) | 17.1 µM (inactive) | 2.86 µM (inactive) | 15.7 µM (inactive) | 13.7 µM (inactive) | 16.1 µM (inactive) | 15.5 µM (inactive) |
